The IC50 is the concentration at which inhibition is half-maximal. High values mean lower potency, low ones higher potency. The term half-life denotes how long it takes for the measured level to halve. Low values mean rapid decline, high ones slow decline. Usually AUC stands for the area under the concentration-time curve, a measure of exposure. Read a low AUC as low exposure. Broadly, the Cmax is the maximum level reached in the sampled fluid or tissue.

These results are taken from ChEMBL document CHEMBL1141038, “Identification of ortho-amino benzamides and nicotinamides as MCHr1 antagonists” (Bioorg Med Chem Lett, 2005).

The target of data set [1] is T1, Melanin-concentrating hormone receptor 1 (Homo sapiens, UniProt Q99705). The data set is described as follows: Inhibitory concentration against MCH1R IMR32 cells in FLIPR-based assay. The data set is classed as cell-based, IMR-32.
T1 sequence (Q99705 whole entry): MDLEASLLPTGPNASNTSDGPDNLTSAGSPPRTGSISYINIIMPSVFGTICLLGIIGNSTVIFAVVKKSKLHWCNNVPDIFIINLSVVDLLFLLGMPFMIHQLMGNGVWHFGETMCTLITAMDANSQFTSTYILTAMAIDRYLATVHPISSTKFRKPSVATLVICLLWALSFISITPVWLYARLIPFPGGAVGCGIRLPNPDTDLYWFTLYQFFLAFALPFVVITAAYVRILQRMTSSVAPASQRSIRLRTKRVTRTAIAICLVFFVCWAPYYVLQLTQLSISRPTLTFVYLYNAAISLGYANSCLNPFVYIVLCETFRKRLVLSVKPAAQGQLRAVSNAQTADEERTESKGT
Data set [2] deals with T1, Melanin-concentrating hormone receptor 1. In words: Inhibitory activity towards melanin-concentrating hormone receptor 1 in IMR32 cells. It is filed as cell-based, IMR-32.
Data set [3] in a line: Plasma half life in DIO mice after 10 mg/kg oral dose. It is filed as ADME, organism-based. Also on record: dose 10 mg/kg, route oral. To be noted: mouse.
Data set [4] can be described thus: Area under the curve in brain of DIO mice after 10 mg/kg oral dose. It is filed as ADME, organism-based. Also on record: dose 10 mg/kg, route oral. The settings on record: mouse, in vivo.
Data set [5] is described as follows: Brain Cmax in DIO mice after 10 mg/kg oral dose. It is filed as ADME, organism-based. More on the design: dose 10 mg/kg, route oral. The settings on record: mouse.
The nature of data set [6]: Plasma Cmax in DIO mice after 10 mg/kg oral dose. It is filed as ADME, organism-based. More on the design: dose 10 mg/kg, route oral. The settings on record: mouse.
The nature of data set [7]: Brain/plasma in DIO mice after 10 mg/kg oral dose. It is filed as ADME, organism-based. Also on record: dose 10 mg/kg, route oral. To be noted: mouse, read-out: AUC.
Data set [8] is described as follows: Brain half life in DIO mice after 10 mg/kg oral dose. It is filed as ADME, organism-based. More on the design: dose 10 mg/kg, route oral. To be noted: mouse.
Data set [9] is described as follows: Area under the curve in plasma of DIO mice after 10 mg/kg oral dose. Also on record: dose 10 mg/kg, route oral. The data set is classed as ADME, organism-based. To be noted: mouse, in vivo.
Data set [10] is described as follows: Plasma area under curve in DIO mice after 10 mg/kg oral dose. It is filed as ADME, organism-based. Also on record: dose 10 mg/kg, route oral. The settings on record: mouse, in vivo.
Data set [11] can be described thus: Plasma peak concentration in DIO mice after 10 mg/kg oral dose. It is filed as ADME, organism-based. Also on record: dose 10 mg/kg, route oral. The settings on record: mouse.
The nature of data set [12]: Brain/plasma area under curve in DIO mice after 10 mg/kg oral dose. More on the design: dose 10 mg/kg, route oral. The data set is classed as ADME, organism-based. The settings on record: mouse, read-out: AUC.

As for `O=C(NC1CCN(Cc2ccc(Cl)cc2)CC1)c1cc(Cl)cnc1NCc1ccco1`, the concentration for half-maximal inhibition (IC50) in data set [1] is 1220 nM; in data set [2], 60 nM.

Take `O=C(NC1CCN(Cc2ccc3c(c2)OCO3)CC1)c1cc(Cl)cnc1NCC1CC1`: the IC50 in [1] and in data set [2] was 20 nM throughout.

`COc1ccc(NCc2ncc[nH]2)c(C(=O)NC2CCN(Cc3ccc4c(c3)OCO4)CC2)c1`: the half-inhibitory concentration (IC50) in data set [1] stood at 220 nM; in data set [2] it was 70 nM.

`CS(=O)(=O)Nc1ccc(Cl)cc1C(=O)NC1CCN(Cc2ccc3c(c2)OCO3)CC1`: half-maximal inhibition in [2] (IC50) required 560 nM.

With `CC(=O)c1ccc(CN2CCC(NC(=O)c3cc(Cl)ccc3NCc3c[nH]cn3)CC2)cc1`, the IC50 in data set [1] was 240 nM; in data set [2], 10 nM.

On to `CC(C)OCCNc1ncc(Cl)cc1C(=O)NC1CCN(Cc2ccc3c(c2)OCO3)CC1`, for which the values for the half-life in data set [3] and in data set [8] were 138 min and 84 min, respectively. The AUC was found to be 570 ng·h/mL in [4] and 677 ng·h/mL in [9]. Moreover, the IC50 stood at 20 nM in data set [1] and 10 nM in data set [2]. The values for the Cmax in data set [5] and in data set [6] were 276 ng/mL and 283 ng/mL, respectively. Moreover, the Kp in data set [7] stood at 0.84.

In data set [2], `O=C(NC1CCN(Cc2ccc3c(c2)OCO3)CC1)c1cc(Cl)cnc1Cl` returned an IC50 of 2010 nM.

`O=C(NC1CCN(Cc2ccc3c(c2)OCO3)CC1)c1cc(Cl)ccc1NCc1nccs1` displayed an AUC in [10] of 4100 ng·h/mL. Also, the values for the half-life in data set [3] and in data set [8] were 228 min and 468 min, respectively. Further, the values for the Cmax in data set [11] and in [5] were 2030 ng/mL and 814 ng/mL, respectively. Moreover, the Kp in data set [12] was found to be 0.7. Besides, the IC50 in data set [1] came to 16 nM; in [2] it was 2 nM.

Turning to `O=C(NC1CCN(Cc2ccc3ccccc3c2)CC1)c1cc(Cl)ccc1NCc1nccs1`, the IC50 was found to be 40 nM in [1] and 6 nM in data set [2].

With `O=C(NC1CCN(Cc2ccc3c(c2)OCO3)CC1)c1cc(Cl)cnc1NC[C@H]1CCCO1`, the concentration for half-maximal inhibition (IC50) in [1] stood at 20 nM; in data set [2] it was 50 nM.

Turning to `O=C(NC1CCN(Cc2ccc3c(c2)OCO3)CC1)c1cc(Cl)cnc1NC1CCC1`, the concentration for half-maximal inhibition (IC50) is 30 nM in data set [1] and 70 nM in data set [2].

In the case of `COc1ccc(NS(C)(=O)=O)c(C(=O)NC2CCN(Cc3ccc4c(c3)OCO4)CC2)c1`, the IC50 in [2] amounted to 260 nM.

Compound `COc1ccc(CN2CCC(NC(=O)c3cc(Cl)cnc3NCC(C)C)CC2)cc1F` had an IC50 in [2] of 160 nM.

In the case of `COc1ccc(NCC2CC2)c(C(=O)NC2CCN(Cc3ccc4c(c3)OCO4)CC2)c1`, the IC50 in [1] came to 90 nM; in data set [2] it was 10 nM.

With `COc1ccc(NCC2CCCCC2)c(C(=O)NC2CCN(Cc3ccc4c(c3)OCO4)CC2)c1`, the half-inhibitory concentration (IC50) in data set [1] is 1060 nM; in [2], 50 nM.

For `COc1ccc(CNc2ncc(Cl)cc2C(=O)NC2CCN(Cc3ccccc3)CC2)cc1`, the IC50 in [1] was 30 nM; in data set [2], 10 nM.

For the compound `CC(C)OCCNc1ncc(-c2cccs2)cc1C(=O)NC1CCN(Cc2ccc3c(c2)OCO3)CC1`, inhibition in data set [2] was half-maximal at 190 nM (IC50).

Regarding `COc1ccc(NCc2c[nH]cn2)c(C(=O)NC2CCN(Cc3ccc4ccccc4c3)CC2)c1`, the 50% inhibitory concentration (IC50) in data set [1] was 1940 nM; in data set [2], 390 nM.

Regarding `CC(C)OCCCNc1ncc(Cl)cc1C(=O)NC1CCN(Cc2ccc3c(c2)OCO3)CC1`, the IC50 in [1] was 60 nM; in data set [2] it was 7 nM.

As for `O=C(NC1CCN(Cc2ccc(Cl)cc2)CC1)c1cc(Cl)cnc1NC1CCC1`, in [2], 1980 nM corresponded to half-maximal inhibition (IC50).

Turning to `O=C(NC1CCN(Cc2ccc3c(c2)OCO3)CC1)c1cc(Cl)cnc1NCc1cscn1`, the half-maximal inhibitory concentration (IC50) was 8 nM in data set [1] and 4 nM in [2].

In [2], `COc1ccc(NS(C)(=O)=O)c(C(=O)NC2CCN(Cc3ccc(Cl)cc3)CC2)c1` returned a concentration for half-maximal inhibition (IC50) of 160 nM.

With `O=C(NC1CCN(Cc2ccc3c(c2)OCO3)CC1)c1cc(Cl)ccc1O`, the IC50 in data set [1] amounted to 510 nM; in [2], 80 nM.

With `O=C(Nc1ccc(Cl)cc1C(=O)NC1CCN(Cc2ccc3c(c2)OCO3)CC1)c1ccccn1`, the IC50 in [1] amounted to 370 nM; in data set [2] it was 20 nM.

On to `O=C(NC1CCN(Cc2ccc3c(c2)OCO3)CC1)c1cc(Cl)cnc1NCc1nccs1`, for which the IC50 worked out at 9 nM in data set [1] and 6 nM in data set [2].

`COc1ccc(NC(=O)NC(C)C)c(C(=O)NC2CCN(Cc3ccc(Cl)cc3)CC2)c1` returned a 50% inhibitory concentration (IC50) in data set [2] of 220 nM.

In the case of `Nc1ccc(Cl)cc1C(=O)NC1CCN(Cc2ccc3c(c2)OCO3)CC1`, the IC50 turned out to be 200 nM in [1] and 9 nM in [2].

Take `CC(C)Nc1ncc(Cl)cc1C(=O)NC1CCN(Cc2ccc3c(c2)CCO3)CC1`: the IC50 in data set [1] and in data set [2] was 70 nM in each case.

As for `COc1ccc(NCc2c[nH]cn2)c(C(=O)NC2CCN(Cc3ccc4c(c3)OCO4)CC2)c1`, the IC50 is 50 nM in data set [1] and 20 nM in data set [2].

With `CC(C)CNc1ncc(Cl)cc1C(=O)NC1CCN(Cc2ccc3c(c2)OCO3)CC1`, the IC50 in data set [1] was determined as 50 nM; in [2], 20 nM.

`O=C(NC1CCN(Cc2ccc3c(c2)OCO3)CC1)c1cc(Cl)cnc1NCc1ncc[nH]1`: the IC50 in data set [1] is 70 nM; in [2], 20 nM.

Turning to `COc1ccc(NCc2cncn2C)c(C(=O)NC2CCN(Cc3ccc4c(c3)OCO4)CC2)c1`, the values for the concentration for half-maximal inhibition (IC50) in [1] and in [2] were 100 nM and 90 nM, respectively.

For the compound `CC(C)Nc1ncc(Cl)cc1C(=O)NC1CCN(Cc2ccc3c(c2)OCO3)CC1`, the concentration for half-maximal inhibition (IC50) was 30 nM in [1] and 20 nM in data set [2].

As for `COc1ccc(NCC2CCOC2)c(C(=O)NC2CCN(Cc3ccc4c(c3)OCO4)CC2)c1` (stereo not drawn), the IC50 in data set [1] is 40 nM; in data set [2], 20 nM.

In turn, `O=C(NC1CCN(Cc2ccc3c(c2)OCO3)CC1)c1ccccc1NCc1c[nH]cn1` yielded a half-inhibitory concentration (IC50) in [2] of 410 nM.

On to `O=C(NC1CCN(Cc2ccc3c(c2)OCO3)CC1)c1cc(Cl)cnc1NCc1cnc[nH]1`, for which the half-inhibitory concentration (IC50) in [1] was found to be 20 nM; in data set [2] it was 9 nM.

In data set [2], `O=C(NC1CCN(Cc2ccc(Cl)cc2)CC1)c1cc(Cl)cnc1NCC1CC1` displayed a half-inhibitory concentration (IC50) of 410 nM.

`COc1ccc(NCc2c[nH]cn2)c(C(=O)NC2CCN(Cc3ccc4ncccc4c3)CC2)c1`: the figures for the IC50 in [1] and in data set [2] were 100 nM and 70 nM, respectively.

With `COc1ccc(NCc2cncnc2)c(C(=O)NC2CCN(Cc3ccc4c(c3)OCO4)CC2)c1`, the concentration for half-maximal inhibition (IC50) stood at 70 nM in [1] and 9 nM in data set [2].

In turn, `O=C(NC1CCN(Cc2ccc3c(c2)OCO3)CC1)c1cccc(Cl)c1` yielded an IC50 in data set [2] of 110 nM.

Consider `CC(C)OCCNc1ncc(-c2ccncc2)cc1C(=O)NC1CCN(Cc2ccc3c(c2)OCO3)CC1`, for which inhibition in data set [2] was half-maximal at 140 nM (IC50).

`CNc1ccc(Cl)cc1C(=O)NC1CCN(Cc2ccc3c(c2)OCO3)CC1` displayed an IC50 in [2] of 680 nM.

Regarding `COc1ccc(NCc2ccccn2)c(C(=O)NC2CCN(Cc3ccc4c(c3)OCO4)CC2)c1`, the concentration for half-maximal inhibition (IC50) in data set [1] turned out to be 70 nM; in [2] it was 20 nM.

Take `O=C(NC1CCN(Cc2ccc3ncccc3c2)CC1)c1cc(Cl)ccc1NCc1nccs1`: the results for the half-inhibitory concentration (IC50) in [1] and in [2] were 30 nM and 20 nM, respectively.
